For series [1], the system named is FaDu. The experiment in a line: Induction of morphological changes in human FaDu cells assessed as reduction in cell density at 2 to 5 uM incubated for 48 hrs by bright field microscope based analysis. The format is functional. The following applies: dose 2-5 µM.
For series [2], the system named is FaDu. The experiment in a line: Inhibition of colony formation in human FaDu cells assessed as reduction in colony formation at 1 to 5 uM incubated for 48 hrs crystal violet staining based analysis (reference value: 62.58%). The format is functional. Conditions: dose 1-5 µM.
Series [3] has as its target T1, Prostaglandin G/H synthase 1 (Ovis aries) (UniProt P05979).
T1 sequence (whole entry): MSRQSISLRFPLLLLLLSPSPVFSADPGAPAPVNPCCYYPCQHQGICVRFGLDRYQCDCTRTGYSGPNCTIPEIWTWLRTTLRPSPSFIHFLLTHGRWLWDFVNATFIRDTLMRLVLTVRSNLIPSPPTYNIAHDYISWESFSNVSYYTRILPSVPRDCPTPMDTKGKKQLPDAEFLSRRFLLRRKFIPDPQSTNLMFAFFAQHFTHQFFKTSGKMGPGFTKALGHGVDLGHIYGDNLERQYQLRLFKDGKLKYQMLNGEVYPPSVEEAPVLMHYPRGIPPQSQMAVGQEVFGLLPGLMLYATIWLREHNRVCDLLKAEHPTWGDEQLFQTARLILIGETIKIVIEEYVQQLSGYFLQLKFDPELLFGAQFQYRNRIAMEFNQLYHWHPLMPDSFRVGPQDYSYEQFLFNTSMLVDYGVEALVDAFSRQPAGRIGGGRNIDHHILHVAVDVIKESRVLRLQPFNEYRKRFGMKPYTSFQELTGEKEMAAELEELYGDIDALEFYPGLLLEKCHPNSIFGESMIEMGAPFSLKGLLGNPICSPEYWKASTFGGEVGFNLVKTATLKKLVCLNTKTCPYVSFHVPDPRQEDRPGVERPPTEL
The experiment in a line: Inhibition of ovine COX-1 at 10 uM relative to control.

Series [4] relates to FaDu. The series is described as follows: Induction of morphological changes in human FaDu cells assessed as appearance of detached cells at 1 uM incubated for 48 hrs by bright field microscope based analysis. The format is functional, cell-based.
Series [5] deals with FaDu. The experiment in a line: Induction of morphological changes in human FaDu cells assessed as cell membrane blebbing at 2 to 5 uM incubated for 48 hrs by bright field microscope based analysis. Conditions: dose 2-5 µM. The format is functional.
Series [6] concerns FaDu. The series is described as follows: Induction of apoptosis in human FaDu cells assessed as nuclear changes at 1 to 5 uM by DAPI staining based analysis. Conditions: dose 1-5 µM. The format is functional, cell-based.
The test system of series [7] is FaDu. The series is described as follows: Upregulation of LC3A/B level in human FaDu cells measured after 48 hrs by Western blot analysis. The format is functional, cell-based. The following applies: dose 1-5 µM.
Series [8] deals with FaDu. The experiment in a line: Induction of apoptosis in human FaDu cells assessed as apoptotic bodies at 1 to 5 uM by DAPI staining based analysis. The following applies: dose 1-5 µM. The format is functional, cell-based.
Series [9] has as its system FaDu. The experiment in a line: Induction of morphological changes in human FaDu cells assessed as appearance of detached cells at 2 to 5 uM incubated for 48 hrs by bright field microscope based analysis. It counts as functional, cell-based. Conditions: dose 2-5 µM.
The test system of series [10] is FaDu. The experiment in a line: Inhibition of cell migration in human FaDu cells assessed as reduction in wound closure at 5 uM measured after 48 hrs by bright field microscopic analysis. The format is functional, cell-based.
In series [11] the test system is FaDu. The experiment in a line: Antiproliferative activity against human FaDu cells assessed as inhibition of cell growth measured after 48 hrs by MTT assay. The format is functional, cell-based. (In general: Formazan colour is commonly taken as a measure of viable cells.)
Another series relates to HEK293. The experiment in a line: Antiproliferative activity against HEK293 cells assessed as inhibition of cell growth at 10 to 25 uM measured after 48 to 72 hrs by MTT assay. It counts as toxicity, cell-based. Conditions: human, hek293, 25 µM; dose lower 10 µM, time lower 48 hrs, dose upper 25 µM, time upper 72 hrs.
For series [12], the system named is FaDu. The experiment in a line: Induction of autophagy in human FaDu cells assessed as increase in acidic vesicular organelles measured after 48 hrs by acridine orange staining based fluorescence microscopy analysis. The format is functional, cell-based. The following applies: dose 1-5 µM.
The test system of series [13] is FaDu. The series is described as follows: Induction of apoptosis in human FaDu cells assessed as chromatin condensation at 1 to 5 uM by DAPI staining based analysis. It counts as functional, cell-based. The following applies: dose 1-5 µM.
Series [14] relates to MCF7. The experiment in a line: Induction of cell cycle arrest in human MCF7 cells assessed as accumulation of cells at G2/M phase measured after 24 hrs by PI staining based flow cytometry analysis (reference value: 14.2%). It counts as functional. In general terms: A flow cytometer gives signals particle by particle.
For series [15], the target named is T2, DNA topoisomerase 1 (Homo sapiens) (UniProt P11387).
T2 sequence (whole entry): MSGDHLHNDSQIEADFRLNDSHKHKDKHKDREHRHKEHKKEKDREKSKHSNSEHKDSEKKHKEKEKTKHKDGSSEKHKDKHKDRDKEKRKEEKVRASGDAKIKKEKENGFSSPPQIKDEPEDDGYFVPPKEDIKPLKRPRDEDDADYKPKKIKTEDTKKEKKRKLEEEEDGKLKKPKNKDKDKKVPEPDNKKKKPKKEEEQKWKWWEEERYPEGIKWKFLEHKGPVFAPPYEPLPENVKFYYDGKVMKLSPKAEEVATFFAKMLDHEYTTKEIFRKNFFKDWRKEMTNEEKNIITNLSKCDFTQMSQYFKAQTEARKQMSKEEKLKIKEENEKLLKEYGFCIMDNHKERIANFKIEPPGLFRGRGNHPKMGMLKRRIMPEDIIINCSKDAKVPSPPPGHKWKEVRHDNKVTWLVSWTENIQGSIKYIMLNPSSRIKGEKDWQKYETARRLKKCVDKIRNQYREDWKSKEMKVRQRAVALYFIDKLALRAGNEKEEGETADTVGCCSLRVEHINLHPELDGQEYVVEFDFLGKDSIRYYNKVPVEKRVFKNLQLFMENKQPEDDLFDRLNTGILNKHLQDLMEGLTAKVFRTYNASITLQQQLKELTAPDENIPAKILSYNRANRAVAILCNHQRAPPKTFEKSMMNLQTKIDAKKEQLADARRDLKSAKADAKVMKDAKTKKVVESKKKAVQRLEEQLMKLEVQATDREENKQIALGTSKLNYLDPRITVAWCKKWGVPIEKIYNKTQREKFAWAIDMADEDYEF
The series is described as follows: Inhibition of human topoisomerase-I extracted from baculovirus expression system using SC-DNA as substrate incubated for 30 mins by EtBr staining based agarose gel electrophoresis method.

Series [16] deals with FaDu. The experiment in a line: Upregulation of cleaved caspase-3 level in human FaDu cells measured after 48 hrs by Western blot analysis. The following applies: dose 1-5 µM. The format is functional, cell-based.
Series [17] has as its target DNA topoisomerase 2-alpha (Homo sapiens) (UniProt P11388). The experiment in a line: Inhibition of human topoisomerase-II alpha assessed as reduction in decatenation activity using kinetoplast DNA as substrate incubated for 30 mins by EtBr staining based agarose gel electrophoresis method.
Series [18] deals with FaDu. The experiment in a line: Induction of apoptosis in human FaDu cells assessed as nuclear fragmentation at 1 to 5 uM by DAPI staining based analysis. The following applies: dose 1-5 µM. It counts as functional, cell-based.
The subject of series [19] is FaDu. The series is described as follows: Induction of morphological changes in human FaDu cells assessed as appearance of rounded cells at 1 uM incubated for 48 hrs by bright field microscope based analysis. The format is functional, cell-based.
The subject of a further series is T47D. The experiment in a line: Antiproliferative activity against human T47D cells assessed as inhibition of cell growth at 10 uM measured after 48 to 72 hrs by MTT assay relative to control. The format is functional. The following applies: time 48-72 hrs.
Series [20] concerns MCF7. The series is described as follows: Induction of cell cycle arrest in human MCF7 cells assessed as accumulation of cells at G0/G1 phase measured after 24 hrs by PI staining based flow cytometry analysis (reference value: 45.2%). The format is functional.
Series [21] deals with FaDu. The experiment in a line: Antiproliferative activity against human FaDu cells assessed as inhibition of cell growth at 10 uM measured after 48 to 72 hrs by MTT assay relative to control. The format is functional. Conditions: time 48-72 hrs.

Structures are written as SMILES. Activity calls are given as the source filed them. The calls are words filed in the database; no cut-off is given here.

This note sets out measurements from ChEMBL document CHEMBL6177930, “2-(4-Bromobenzyl) tethered 4-amino aryl/alkyl-5,6,7,8-tetrahydrobenzo[4,5]thieno[2,3-d]pyrimidines: design, synthesis, anticancer assessment via dual topoisomerase-I/II inhibition, and in silico studies” (RSC Med Chem, 2025).

Sequence of DNA topoisomerase 2-alpha (Homo sapiens) (P11388 whole entry, the tested form may be a part): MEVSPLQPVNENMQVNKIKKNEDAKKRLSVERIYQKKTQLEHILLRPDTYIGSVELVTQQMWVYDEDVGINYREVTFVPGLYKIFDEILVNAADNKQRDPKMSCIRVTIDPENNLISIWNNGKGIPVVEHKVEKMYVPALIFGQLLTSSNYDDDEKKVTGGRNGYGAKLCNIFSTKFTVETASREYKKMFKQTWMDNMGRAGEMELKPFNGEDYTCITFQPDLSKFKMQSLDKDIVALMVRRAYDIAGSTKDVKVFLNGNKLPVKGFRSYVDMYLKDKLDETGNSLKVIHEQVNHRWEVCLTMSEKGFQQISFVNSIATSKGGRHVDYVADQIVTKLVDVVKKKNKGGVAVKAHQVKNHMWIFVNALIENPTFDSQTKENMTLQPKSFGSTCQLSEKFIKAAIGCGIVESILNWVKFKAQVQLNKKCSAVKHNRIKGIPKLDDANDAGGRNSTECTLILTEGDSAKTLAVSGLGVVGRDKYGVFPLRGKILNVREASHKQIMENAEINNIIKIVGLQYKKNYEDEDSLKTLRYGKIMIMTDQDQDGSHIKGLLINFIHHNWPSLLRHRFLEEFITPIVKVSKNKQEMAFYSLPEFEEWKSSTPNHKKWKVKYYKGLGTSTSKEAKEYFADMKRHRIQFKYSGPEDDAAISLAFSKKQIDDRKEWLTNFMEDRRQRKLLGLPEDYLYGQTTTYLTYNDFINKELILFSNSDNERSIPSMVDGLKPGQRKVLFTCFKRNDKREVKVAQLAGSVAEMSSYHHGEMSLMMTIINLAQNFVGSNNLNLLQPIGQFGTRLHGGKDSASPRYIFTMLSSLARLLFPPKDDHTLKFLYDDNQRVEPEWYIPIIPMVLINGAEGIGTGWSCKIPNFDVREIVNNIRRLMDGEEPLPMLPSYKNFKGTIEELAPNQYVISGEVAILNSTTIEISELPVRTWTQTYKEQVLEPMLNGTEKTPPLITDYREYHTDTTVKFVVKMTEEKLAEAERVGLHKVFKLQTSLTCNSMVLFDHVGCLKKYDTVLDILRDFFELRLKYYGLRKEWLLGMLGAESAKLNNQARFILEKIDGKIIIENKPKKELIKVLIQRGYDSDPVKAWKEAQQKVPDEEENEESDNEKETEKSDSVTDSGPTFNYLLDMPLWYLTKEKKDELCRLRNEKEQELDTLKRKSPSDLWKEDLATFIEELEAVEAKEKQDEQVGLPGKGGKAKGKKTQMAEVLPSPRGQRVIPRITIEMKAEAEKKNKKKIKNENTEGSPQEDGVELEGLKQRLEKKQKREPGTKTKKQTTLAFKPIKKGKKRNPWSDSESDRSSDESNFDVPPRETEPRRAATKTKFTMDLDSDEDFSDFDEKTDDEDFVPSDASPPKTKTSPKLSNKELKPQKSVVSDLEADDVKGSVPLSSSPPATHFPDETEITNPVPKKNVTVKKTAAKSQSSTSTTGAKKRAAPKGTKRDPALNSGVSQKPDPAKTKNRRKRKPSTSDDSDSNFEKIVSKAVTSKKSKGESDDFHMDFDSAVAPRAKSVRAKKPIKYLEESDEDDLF

As to `Brc1ccc(Cc2nc(N3CCN(c4ccncc4)CC3)c3c4c(sc3n2)CCCC4)cc1`, the outcome with FaDu [1], with FaDu [4], in the series on FaDu [5], in the series on FaDu [6], with FaDu [8] and in the series with FaDu [9] was Active. Further, the outcome in the series with FaDu [13], in the series on FaDu [18] and with FaDu [19] was Active. In addition, the “inhibition (INH)” value in the series on FaDu [2] is 19.35%. The inhibition (as a rule, how much of the control response was suppressed) in [3] is 46.5%; in [15] it was “Active; Compound Showed Potent Inhibition Activity Than Camptothecin”; in [17], “Active; Compound Showed Higher Inhibition Activity Than Etoposide”. Moreover, the Activity entry is “Dose-dependent-effect” in the series with FaDu [7]; “Dose-dependent-effect” in the series on FaDu [11] (dose 0.5-50 µM); “Non-toxic” in the series on HEK293; “Dose-dependent-effect” in the series with FaDu [12]; 52.8% in the series with MCF7 [14]; “Dose-dependent-effect” with FaDu [16]. Besides, in the series on MCF7 [20], the Activity amounted to 20.2%. The inhibition result in the series on FaDu [10] was “Active”. Further, the 50% inhibitory concentration (IC50) – broadly, the concentration that inhibits the measured activity by half – in the series with FaDu [11] was 3.06 µM. The values for the inhibition at 10 µM in the series on T47D and in the series with FaDu [21] were 83.4% and 83.5%, respectively.
